Results reported in patent publication US12691100B2, “NMT inhibitor treatment of a senescence-associated disease or disorder of the liver” (Imperial College Innovations Limited, priority 2020, dated 2026).

What was measured:
IMR90 ER:RAS cells = experiment: Senolytic activity under IRE1 inhibition with KIRA6; assay type: cell-based, human; conditions: with 600 nM KIRA6, 4OHT treated cells; FIGS. 15A-B
Procedure: (§1) High-throughput microscopy survival assay—To assess senolytic effect of drugs, cells were cultured for 7 days, culture media was changed to DM0.5 media and drugs in DMSO were added (<5% v/v final concentration), drugs were replenished after 3 days if assay length was longer than 72 h. Wells were fixed in 4% PFA for 1 hour at day 10 to 14, washed 3 times with PBS and then stained with 1 μg/mL DAPI (w/v, PBS) for 10 minutes. Wells were then washed 3 times with PBS. Optionally plates could be stored at 4° C. for up to 2 weeks and DAPI stained. Image acquisition of DAPI stained cells was performed on an automated InCell Analyser 2000 (GE Healthcare®) and high-content analysis on the InCell Investigator 2.7.3 software used to quantify number of DAPI positive cells per well. A top-hat method was used to segment cell-nuclei based on DAPI stained area and a minimum nuclear area threshold of 80 μm used to exclude debris. For cancer cell lines, nuclear area threshold was reduced to 40 μm. Survival was measured as cell counts relative to DMSO treated quiescent or senescent cells.
To investigate whether the activation of UPR caused by NMT inhibition in senescent cells was responsible for the senolytic potential of NMT inhibitors, cells were treated with KIRA6, a selective inhibitor of IRE1, a kinase necessary for the UPR. IMR90 ER:RAS cells undergoing senescence (after induction with 4OHT), were treated with 600 nM KIRA6 (an IRE1 inhibitor) on day 4 post-induction. On day 7 post-induction, cells were treated with Compound 1 or 2 and 600 nM KIRA6. […] Both NMT inhibitor and Kira6 were replenished 3 days after addition of NMT inhibitor (at day 10 post-induction). Data is shown as mean±SD, n represents independent biological experiments.

[1] = tested on: HCT116 colon cancer cells; experiment: Senolytic survival assay, chemotherapy-induced senescence in cancer cells; assay type: cell-based, human; conditions: for Survival, senescent versus control cells: second experiment: doxorubicin 100 nM, etoposide 2 μM or cisplatin 100 μM, or DMSO, replenished after 72 h, 48 h more, FIGS. 7A-C
Procedure: IMR90 cells were used to generate inducible ER:RAS (hereinafter iRAS) cells to model Oncogene induced senescence (OIS), through retroviral infection of pLNC-ER:RAS-neo into IMR90 cells followed by selection with Neomycin. IMR90 cells containing the pLNC-ER:RAS plasmid backbone pLXSN were infected in parallel to assess leakiness in the pLNC-ER:RAS system. Treatment with 100 nM 4OHT (Sigma, in DMSO) was used to induce IMR90 ER:RAS cells to undergo oncogene induced senescence (OIS). Therapy induced senescence (TIS) was induced in IMR90 cells by treatment with 33 μM (50 ug/ml) bleomycin sulphate (Generon, HY-17565) for 24 hours, 20 μM palbociclib (Selleckchem, S1116) for 7 days or 100 nM doxorubicin (Cayman chemical, 15007) for 7 days. Senescence was induced in SK-HEP-1 cells by treatment with 2 μM etoposide (Sigma-Aldrich, E1383) for 7 days (FIGS. 4A-C). HCT-116 senescence was induced by 250 nM treatment with doxorubicin (Cayman chemical, 15007) for 48 hours followed by 5 days culture in media without chemotherapy (FIG. 5), or by treatment with 100 nM doxorubicin, 2 μM etoposide or 100 μM cisplatin for 3 days followed by 4 days culture in media without chemotherapy (FIGS. 6A-7C). Senescence was induced in MCF7 by 200 nM treatment with doxorubicin for 7 days, 2 μM etoposide for 7 days or 10 μM cisplatin for 7 days (FIGS. 8A-9C).
as §1, with “A top-hat method was used to segment cell-nuclei based on DAPI stained area and a minimum nuclear area threshold of 80 μm used to exclude debris. For cancer cell lines, nuclear area threshold was reduced to 40 μm.” left out
In a first experiment, HCT116 colon cancer cells were treated with doxorubicin (to induce senescence), or DMSO (as a control). […] 7 days after adding the drugs with replenishment after 3 days, cells were fixed, imaged and cells numbers were quantified using high throughput microscopy. […]
In a second experiment, HCT116 were treated with doxorubicin, etoposide or cisplatin (to induce senescence) or DMSO (as a control). 7 days after treatment, BrdU incorporation (to assess cell division), SA-β-Galactosidase activity and p21^CIP1 expression (as markers of senescence) were analysed. […]

SMILES	Dependence of senolytic activity on IRE1 / UPR (IMR90 ER:RAS cells)	Survival (cell counts relative to DMSO), senescent versus control cells ([1]; first experiment: doxorubicin or DMSO, compound added 7 days after induction, read 7 days later, FIG. 5)	Survival, senescent versus control cells [1]
Cc1nn(C)c(C)c1CCOc1c(-c2ccc3c(c2)c(CN(C)C)nn3C)ccc(F)c1F [Compound 1, 1-(5-(3,4-difluoro-2-(2-(1,3,5-trimethyl-1H-pyrazol-4-yl)ethoxy)phenyl)-1-methyl-1H-indazol-3-yl)-N,N-dimethylmethanamine]	dependent on IRE1 and the unfolded protein response	preferentially kills cancer cells that undergo senescence after being treated with doxorubicin	preferentially kill cancer cells that undergo senescence after being treated with doxorubicin, etoposide or cisplatin
Cc1c(NS(=O)(=O)c2c(Cl)cc(-c3ccnc(N4CCNCC4)c3)cc2Cl)c(CC(C)C)nn1C [Compound 2]	dependent on IRE1 and the unfolded protein response	–	preferentially kill cancer cells that undergo senescence after being treated with doxorubicin, etoposide or cisplatin
